ChEMBL document CHEMBL3997794, “Design and synthesis of benzodiazepine analogs as isoform-selective human lysine deacetylase inhibitors” (Eur J Med Chem, 2017)

How the values were obtained:
Histone deacetylase 3 [1] = target: T1, Histone deacetylase 3 (Homo sapiens, UniProt O15379); experiment: Inhibition of human KDAC3 using FITC-labeled p53 acetylated peptide as substrate after 60 mins by fluorescence assay
Histone deacetylase 1 [2] = target: T2, Histone deacetylase 1 (Homo sapiens, UniProt Q13547); experiment: Inhibition of human KDAC1 using substrate A after 60 mins by fluorescence assay
T2 sequence (Q13547 whole entry): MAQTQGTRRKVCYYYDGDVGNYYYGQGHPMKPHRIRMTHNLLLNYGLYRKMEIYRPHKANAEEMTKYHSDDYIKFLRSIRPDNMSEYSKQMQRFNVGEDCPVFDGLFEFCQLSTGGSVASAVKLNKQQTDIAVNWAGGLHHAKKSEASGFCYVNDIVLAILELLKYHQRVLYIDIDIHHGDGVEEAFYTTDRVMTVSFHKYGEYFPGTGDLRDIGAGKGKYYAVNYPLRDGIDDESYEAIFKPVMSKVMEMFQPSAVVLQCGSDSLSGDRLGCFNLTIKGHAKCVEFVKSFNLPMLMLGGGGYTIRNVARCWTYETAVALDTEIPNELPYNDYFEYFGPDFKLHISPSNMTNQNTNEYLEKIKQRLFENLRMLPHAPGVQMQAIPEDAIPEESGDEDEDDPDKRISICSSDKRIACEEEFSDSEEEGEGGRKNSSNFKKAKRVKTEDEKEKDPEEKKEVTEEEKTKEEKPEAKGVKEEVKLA

Histone deacetylase 8 = target: T3, Histone deacetylase 8 (Homo sapiens, UniProt Q9BY41); experiment: Inhibition of human KDAC8 after 60 mins by fluorescence assay
T3 sequence (Q9BY41 whole entry): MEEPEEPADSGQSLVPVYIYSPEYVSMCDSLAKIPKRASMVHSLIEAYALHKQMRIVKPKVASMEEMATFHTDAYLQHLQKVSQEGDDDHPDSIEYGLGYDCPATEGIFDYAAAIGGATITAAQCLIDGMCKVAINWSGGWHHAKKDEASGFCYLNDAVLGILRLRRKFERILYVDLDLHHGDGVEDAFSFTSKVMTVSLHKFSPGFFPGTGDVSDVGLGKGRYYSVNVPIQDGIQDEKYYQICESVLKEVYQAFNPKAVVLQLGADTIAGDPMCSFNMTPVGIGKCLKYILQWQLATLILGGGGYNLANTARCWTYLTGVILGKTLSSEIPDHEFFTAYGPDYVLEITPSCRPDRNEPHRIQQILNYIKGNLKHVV

Histone deacetylase 1 [3] = target: T2, Histone deacetylase 1; experiment: Inhibition of human KDAC1 at 30 uM using substrate A after 60 mins by fluorescence assay relative to control
[4] = target: T4, Histone deacetylase 8 (Homo sapiens) (UniProt Q9BY41); experiment: Inhibition of human KDAC8 at 30 uM after 60 mins by fluorescence assay relative to control
T4 sequence (whole entry): T3 sequence (Q9BY41 whole entry)

Histone deacetylase 3 [5] = target: T1, Histone deacetylase 3; experiment: Inhibition of human KDAC3 at 30 uM using FITC-labeled p53 acetylated peptide as substrate after 60 mins by fluorescence assay relative to control

T1 sequence (O15379 whole entry): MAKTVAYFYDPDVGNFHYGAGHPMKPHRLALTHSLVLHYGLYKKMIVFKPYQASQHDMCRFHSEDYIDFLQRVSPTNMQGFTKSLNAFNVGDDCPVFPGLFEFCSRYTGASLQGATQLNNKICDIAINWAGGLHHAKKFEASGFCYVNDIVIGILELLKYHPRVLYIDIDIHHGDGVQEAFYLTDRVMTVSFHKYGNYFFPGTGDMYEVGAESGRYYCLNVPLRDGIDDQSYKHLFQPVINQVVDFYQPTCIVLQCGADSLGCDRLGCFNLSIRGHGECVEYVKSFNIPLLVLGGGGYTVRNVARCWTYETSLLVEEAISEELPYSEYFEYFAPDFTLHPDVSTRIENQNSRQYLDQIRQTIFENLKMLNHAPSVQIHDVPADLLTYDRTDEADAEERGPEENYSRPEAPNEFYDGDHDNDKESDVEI

Structure (SMILES)	IC50 (Histone deacetylase 3 [1]) [µM]	IC50 (Histone deacetylase 1 [2]) [µM]	IC50 (Histone deacetylase 8) [µM]	inhibition (Histone deacetylase 1 [3]) [%]	inhibition [4] [%]	inhibition (Histone deacetylase 3 [5]) [%]
O=C(O)CCCCN1C(=O)[C@H](CC(=O)NC(c2ccccc2)(c2ccccc2)c2ccccc2)N=C(c2ccccc2)c2ccccc21	> 30	> 30	> 30	8.49	11.4	7.32
Cc1c(C)c(S(=O)(=O)NC(=N)NCCC[C@@H]2N=C(c3ccccc3)c3ccccc3N(CCCCC(=O)O)C2=O)c(C)c2c1OC(C)(C)C2	> 30	> 30	> 30	4.96	10.2	3.8
O=C(CCCCN1C(=O)[C@H](CC(=O)NC(c2ccccc2)(c2ccccc2)c2ccccc2)N=C(c2ccccc2)c2ccccc21)NO	4.31	> 30	> 30	43.1	43.9	89.5
COC(=O)CCCCN1C(=O)[C@H](CC(=O)NC(c2ccccc2)(c2ccccc2)c2ccccc2)N=C(c2ccccc2)c2ccccc21	> 30	> 30	> 30	8.7	3.62	5.6
O=C(CCCCN1C(=O)[C@H](CCC(=O)NC(c2ccccc2)(c2ccccc2)c2ccccc2)N=C(c2ccccc2)c2ccccc21)NO	0.83	9.24	23.5	78.7	53.1	99.1
O=C(CCCCN1C(=O)[C@H](CCC(=O)NO)N=C(c2ccccc2)c2ccccc21)NO	2.57	15	8.52	62.5	74.7	92.2
O=C(O)CCCCN1C(=O)[C@H](CCC(=O)NC(c2ccccc2)(c2ccccc2)c2ccccc2)N=C(c2ccccc2)c2ccccc21		> 30	> 30	3.58	11	0
O=C(O)CCCCN1C(=O)[C@H](CCC(=O)O)N=C(c2ccccc2)c2ccccc21	> 30	> 30	> 30	13.6	6.92	1.47
O=C(O)CCCCN1C(=O)[C@H](Cc2cncn2C(c2ccccc2)(c2ccccc2)c2ccccc2)N=C(c2ccccc2)c2ccccc21	> 30	> 30	> 30	7.49	10.4	0
O=C(O)CC[C@@H]1N=C(c2ccccc2)c2ccccc2N(CCCCC(=O)NO)C1=O	8.71	> 30	> 30	48.1	29.7	79.8
COC(=O)CCCCN1C(=O)[C@H](CCCNC(=N)NS(=O)(=O)c2c(C)c(C)c3c(c2C)CC(C)(C)O3)N=C(c2ccccc2)c2ccccc21	> 30	> 30	> 30	4.8	7.3	3.33
COC(=O)CCCCN1C(=O)[C@H](CCC(=O)NC(c2ccccc2)(c2ccccc2)c2ccccc2)N=C(c2ccccc2)c2ccccc21	> 30	> 30	> 30	7.24	0	0
